Test results reported in patent US20090221642A1, “MUSCARINIC RECEPTOR AGONISTS, COMPOSITIONS, METHODS OF TREATMENT THEREOF, AND PROCESSES FOR PREPARATION THEREOF-176” (AstraZeneca AB, priority 2008, published 2009).
Where two headings read alike, the source gives them in different places.

Assays:
[1] = molecular target: T1, cloned human M2 receptor (human Muscarinic receptor subtype 2) (Homo sapiens, UniProt P08172); test: hM2 receptor GTPγS binding; assay type: biochemical; settings: CHO cell membranes expressing hM2, [35S]GTPγS binding
T1 construct: purchased Perkin-Elmer RBHM2M; host or cells: Chinese hamster ovary cells (CHO) membranes
T1 sequence (P08172 1-466): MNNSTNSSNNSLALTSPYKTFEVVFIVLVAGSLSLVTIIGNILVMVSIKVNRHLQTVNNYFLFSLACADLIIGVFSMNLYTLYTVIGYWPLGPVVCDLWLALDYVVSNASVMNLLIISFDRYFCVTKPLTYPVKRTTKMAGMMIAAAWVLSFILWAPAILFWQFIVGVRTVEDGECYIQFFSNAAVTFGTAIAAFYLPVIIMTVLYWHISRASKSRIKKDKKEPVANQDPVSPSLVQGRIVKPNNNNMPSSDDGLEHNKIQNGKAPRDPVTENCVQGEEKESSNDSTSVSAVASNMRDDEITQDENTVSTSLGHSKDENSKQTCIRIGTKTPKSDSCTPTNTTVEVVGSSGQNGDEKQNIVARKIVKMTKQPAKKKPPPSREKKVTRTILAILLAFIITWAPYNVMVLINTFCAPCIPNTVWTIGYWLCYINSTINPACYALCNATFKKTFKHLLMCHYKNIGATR
How it was run: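 CHO-cell membranes expressing human M2 receptor, scintillation-bead [35S]GTPγS binding (0.4 nM) with 12.5 μM GDP, pH 7.4 Hepes buffer, 60 min at room temperature. Agonism: stimulation vs 30 μM acetylcholine maximum; antagonism: reversal of 2 μM acetylcholine stimulation. EC50/IC50/Emax from 10-point sigmoidal fits.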

[2] = molecular target: T2, cloned human M4 receptor (human Muscarinic receptor subtype 4) (Homo sapiens, UniProt P08173); test: hM4 receptor GTPγS binding; assay type: biochemical; settings: CHO cell membranes expressing hM4, [35S]GTPγS binding
T2 construct: purchased Perkin-Elmer RBHM4M; host or cells: Chinese hamster ovary cells (CHO) membranes
T2 sequence (P08173 1-479): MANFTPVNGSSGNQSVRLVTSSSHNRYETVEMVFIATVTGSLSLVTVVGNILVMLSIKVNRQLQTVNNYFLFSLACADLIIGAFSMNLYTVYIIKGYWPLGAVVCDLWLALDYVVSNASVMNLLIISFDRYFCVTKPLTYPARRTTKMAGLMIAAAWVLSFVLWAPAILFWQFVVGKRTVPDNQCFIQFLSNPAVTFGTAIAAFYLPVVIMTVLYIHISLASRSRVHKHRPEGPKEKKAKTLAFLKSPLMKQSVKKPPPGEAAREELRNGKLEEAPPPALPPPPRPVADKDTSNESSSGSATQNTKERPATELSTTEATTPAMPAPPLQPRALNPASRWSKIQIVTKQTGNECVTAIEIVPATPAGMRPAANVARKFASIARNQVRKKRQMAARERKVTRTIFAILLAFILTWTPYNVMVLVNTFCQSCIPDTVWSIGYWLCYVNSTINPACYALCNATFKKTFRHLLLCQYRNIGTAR
How it was run: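 Membranes from CHO cells expressing cloned human M4, with SPA beads, 20 µM GDP and 0.4 nM [35S]GTPγS in HEPES buffer pH 7.4, incubated 60 min at room temperature. Antagonism measured as reversal of 10 µM acetylcholine stimulation; 10-point, threefold dilution curves fitted sigmoidally to give EC50, IC50 and Emax.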

In the case of CCOC(=O)N1CCC(C)(N2CCC(N3C(=O)Cc4cc(F)ccc43)CC2)C1 (single isomer, unassigned) [Example 80, ethyl 3-(4-(5-fluoro-2-oxoindolin-1-yl)piperidin-1-yl)-3-methylpyrrolidine-1-carboxylate], the EC50 ([1]; read-out: hM2 EC50) is reported as 3260 nM and the EC50 ([2]; read-out: hM4 EC50) is reported as over 21800 nM.
In the case of CCOC(=O)N1CCC(C)(N2CCC(N3C(=O)Cc4cc(F)c(C)cc43)CC2)C1 (single isomer, unassigned) [Example 81, ethyl 3-(4-(5-fluoro-6-methyl-2-oxoindolin-1-yl)piperidin-1-yl)-3-methylpyrrolidine-1-carboxylate], the EC50 ([1]; read-out: hM2 EC50) is reported as 1670 nM and the EC50 ([2]; read-out: hM4 EC50) is reported as 7070 nM.
CCOC(=O)N1CCC(C)(N2CCC(N3C(=O)Cc4cc(F)c(C)cc43)CC2)C1 (single isomer, unassigned) [Example 82, ethyl 3-(4-(5-fluoro-6-methyl-2-oxoindolin-1-yl)piperidin-1-yl)-3-methylpyrrolidine-1-carboxylate] was tested, and the EC50 ([1]; read-out: hM2 EC50) was 270 nM and the EC50 ([2]; read-out: hM4 EC50) was 937 nM.
COC(=O)N1CCC(C)(N2CCC(N3C(=O)Cc4cc(F)c(C)cc43)CC2)C1 (single isomer, unassigned) [Example 83, methyl 3-(4-(5-fluoro-6-methyl-2-oxoindolin-1-yl)piperidin-1-yl)-3-methylpyrrolidine-1-carboxylate] gave an EC50 ([1]; hM2 EC50 (nM)) of 2840 nM and an EC50 ([2]; hM4 EC50 (nM)) of 11300 nM.
COC(=O)N1CCC(C)(N2CCC(N3C(=O)Cc4cc(F)c(C)cc43)CC2)C1 (single isomer, unassigned) [Example 84, methyl 3-(4-(5-fluoro-6-methyl-2-oxoindolin-1-yl)piperidin-1-yl)-3-methylpyrrolidine-1-carboxylate] was tested, and the EC50 ([1]; hM2 EC50 (nM)) was 684 nM and the EC50 ([2]; hM4 EC50 (nM)) was 2540 nM.
Work on CCOC(=O)N1CCC(C)(N2CCC(n3c(=O)[nH]c4ccccc43)CC2)C1 (stereo not drawn) [Example 1, ethyl 3-methyl-3-(4-(2-oxo-2,3-dihydro-1H-benzo[d]imidazol-1-yl)piperidin-1-yl)pyrrolidine-1-carboxylate] yielded an EC50 ([1]; read-out: hM2 EC50) of 498 nM and an EC50 ([2]; read-out: hM4 EC50) of 1700 nM.
In the case of CCNC(=O)N1CCC(C)(N2CCC(n3c(=O)[nH]c4ccccc43)CC2)C1 (stereo not drawn) [Example 5, N-ethyl-3-methyl-3-(4-(2-oxo-2,3-dihydro-1H-benzo[d]imidazol-1-yl)piperidin-1-yl)pyrrolidine-1-carboxamide], the EC50 ([1]; read-out: hM2 EC50) is reported as 5130 nM and the EC50 ([2]; read-out: hM4 EC50) is reported as over 16000 nM.
With COC(=O)N1CCC(C)(N2CCC(n3c(=O)[nH]c4cc(F)ccc43)CC2)C1 (stereo not drawn) [Example 8, methyl 3-(4-(5-fluoro-2-oxo-2,3-dihydro-1H-benzo[d]imidazol-1-yl)piperidin-1-yl)-3-methylpyrrolidine-1-carboxylate] the EC50 ([1]; read-out: hM2 EC50) was 1280 nM and the EC50 ([2]; read-out: hM4 EC50) was 5210 nM.
CC1(N2CCC(n3c(=O)[nH]c4cc(F)ccc43)CC2)CCN(C(=O)OCCF)C1 (stereo not drawn) [Example 10, 2-fluoroethyl 3-(4-(5-fluoro-2-oxo-2,3-dihydro-1H-benzo[d]imidazol-1-yl)piperidin-1-yl)-3-methylpyrrolidine-1-carboxylate] gave an EC50 ([1]; read-out: hM2 EC50) of 2140 nM and an EC50 ([2]; read-out: hM4 EC50) of 5170 nM.
For C#CCOC(=O)N1CCC(C)(N2CCC(n3c(=O)[nH]c4cc(F)ccc43)CC2)C1 (stereo not drawn) [Example 11, prop-2-ynyl 3-(4-(5-fluoro-2-oxo-2,3-dihydro-1H-benzo[d]imidazol-1-yl)piperidin-1-yl)-3-methylpyrrolidine-1-carboxylate], the EC50 ([1]; read-out: hM2 EC50) was 149 nM and the EC50 ([2]; read-out: hM4 EC50) was 714 nM.
CCOC(=O)N1CCC(C)(N2CCC(n3c(=O)[nH]c4ccc(C)cc43)CC2)C1 (stereo not drawn) [Example 16, ethyl 3-methyl-3-(4-(6-methyl-2-oxo-2,3-dihydro-1H-benzo[d]imidazol-1-yl)piperidin-1-yl)pyrrolidine-1-carboxylate] showed an EC50 ([1]; read-out: hM2 EC50) of 418 nM and an EC50 ([2]; read-out: hM4 EC50) of 1700 nM.
For COC(=O)N1CCC(C)(N2CCC(n3c(=O)[nH]c4ccc(C)cc43)CC2)C1 (stereo not drawn) [Example 17, methyl 3-methyl-3-(4-(6-methyl-2-oxo-2,3-dihydro-1H-benzo[d]imidazol-1-yl)piperidin-1-yl)pyrrolidine-1-carboxylate], the EC50 ([1]; read-out: hM2 EC50) was 709 nM and the EC50 ([2]; read-out: hM4 EC50) was 3150 nM.
